Entries after “also recorded” stand apart in the source; their conditions may differ. Ends that are not written are not given here.
What was measured:
[1] = system: panel of 24 biotinylated chemokines; test: Phage-display screen of HD2 NNK saturation mutagenesis library; type: binding, human
Text: (§1) FIG. 7. Exemplar results from phage display screens using saturation mutagenesis. A phage-display library was constructed using the HD2 sequence, replacing each residue encoding codon with the degenerate sequence NNK. The 16 degenerate sequences (which also encoded the parental HD2 sequence) were pooled and cloned into display phage. […] Exemplar peptides were selected such that log 2 E for at least one chemokine was greater than 5, and log 2 E for binding to control (CO5, was less than zero). […] The fold enrichment of parental HD2 is also indicated.
as §1, with “A” for “FIG. 7. Exemplar results from phage display screens using saturation mutagenesis. A”
A molecular level understanding of binding mechanism is needed for development of peptides as therapeutics and is usually obtained from structural analyses. As HD2 binds many chemokines this becomes a challenging task, and we explored if we could elucidate this using phage display mutagenesis. The role of each residue in HD2 for binding was examined in phage-display. A library of HD2 mutations that had NNK substituted at each residue and performed phage-display selection against a panel of 24 biotinylated chemokines, in parallel, as described in Example 7. This strategy allowed us to evaluate the impact not only of Ala substitutions, but also conservative, hydrophilic and hydrophobic substitutions, and compare with binding of parental HD2 which is also included in the library. Ala substitution removes side-chains beyond the β-carbon and can be used to infer the role of side-chain functional groups without affecting conformational flexibility of the backbone. […] These residues are within the two motifs identified previously. Other notable residues identified were Y8 and P10. We next judged the impact of Ala mutation by calculating the change in log 2 E (Δlog 2 E) between the mutant and parental HD2. A positive value of Δlog 2 E indicates increased binding, and a negative value decreased binding compared to parental HD2. […] As may be seen, the log 2 E for the parental HD2 was ~0 in these analyses indicating lack of enrichment.
Oligonucleotide pools were amplified using primers: oligo_fwd: 5′-[…] and oligo_rev2: 5′-tcgtcaccctcggcgcctcctcoggatcctccacc. Oligonucleotide PCR products were cloned into plasmid prSTOP4Nsi using NEB Builder HiFi Assembly following instructions of the manufacturer. The vector pool was used to transform electrocompetent Invitrogen ElectroMAX™ DH5α-E™ cells. Plasmid DNA was harvested by MaxiPrep (GeneJet Plasmid Maxiprep Kit) and was transformed into SS320 phage display electrocompetent cells (Lucigen), following the manufacturer's protocol, resuspended in 950 μL recovery media for each electroporation, transferred to 50 mL Falcon tubes, 100 μL 1011 CFU/mL M13KO7 helper phage (NEB) added and shaken at 37° C., 220 RPM for 1 h. 1 mL recovery culture was added to 2YT medium containing +50 ug/mL carbenicillin and 25 ug/mL kanamycin, and grown overnight at 37C, 220 rpm. Phage was precipitated from the culture supernatant by adding 22.5 mL of supernatant to 4.5 mL 20% PEG 8000/2.5 M NaCl, incubating on ice for 30 min, and centrifuging at 10,000 RPM, 4° C. for 10 min, and resuspending phage in 1 ml of PBT, followed by centrifugation at 13000 RPM, 4° C., for 10 min. […]

CC and CXC chemokines = test: Chemokine-induced cell migration assays, pooled over chemokines (meta-analysis); type: cell-based, human; details: single HD2 mutations; nine CC and six CXC chemokines
Procedure: FIG. 16. Effect of HD2 alanine mutations on chemotaxis. […] All experiments were performed as three technical and three biological replicates, and individual data points are indicated, and coloured by the chemokine used. Statistically significant differences (compared to control, coloured blue), using Dunnett's test with correction for multiple comparisons, are indicated by asterisks: ****=P≤0.0001, ***=P≤0.001, **=P≤0.01, *=P≤[…] observations per group (three technical and three biological replicates for each chemokine). FIG. 16B, Faceted plots of change in median normalised cell count between alanine mutant and wild-type HD2 peptide obtained in cell migration assays (Y-axis, Δmedian normalised cell count) versus alanine mutated residue (X-axis). Chemokines used for each experiment are indicated in the strip to the right of each plot. Statistically significant differences compared to parental HD2 are shown as red dots. […] Scatterplot of Δmedian normalised cell count (Y-axis, obtained in cell migration assays) versus Δlog 2 E (obtained in phage-display experiments) for peptide:chemokine pairs. Individual data points indicate peptide chemokine pairs for which both cell migration and Δlog 2 E were available. Linear regression plot with 95% confidence interval, Spearman correlation coefficient (R) and statistical significance (p) are shown.
FIG. 19. […] All experiments were performed as at least three technical and three biological replicates, and individual data points are indicated, and coloured by the chemokine used, for all chemokines studied (n=16 chemokines). Statistically significant differences (compared to control, coloured blue), using Dunnett's test with correction for multiple comparisons, are indicated by asterisks: ****=P≤0.0001, ***=P≤0.001, **=P≤0.01, *=P≤0.05.
(§2) Briefly, cell migration assays use THP1 cells (human monocyte) and primary human buffy coat white cells (consisting of neutrophil granulocytes, monocytes, and lymphocytes), and activated T-cells. THP1 cells and primary monocytes respond to CCL2, CCL3, CCL5, CCL8 and CXCL4, granulocytes to CXCL1 and CXCL8, activated T-cells to CXCL9/10/11. Assays are performed in 96-well Boyden chambers, and migrated cells counted and characterized using and ATTUNE Flow Cytometer as described. Triplicate assays are performed at the EC80 dose of each chemokine at 10 μM peptide concentration.
(§3) The J:CXCR1 cell line was generated by transfecting Jurkat cells by electroporation with PvuI-linearized plasmid D1398 and selecting with blasticidin (Sigma-Aldrich, Cat #203350, […]). […] J:CXCR1 cells were cultured in RPMI-1640 media (Gibco), supplemented with 10% FBS and 5 mM L-Glutamine with blasticidin. For J:CXCR1 migration assays, 300,000 cells/well were added to the top chamber of a 3 μm Transwell insert (Corning) in 50 μL of migration media (RPMI-1640, 0.5% FBS, 4 mM L-Glutamine, 0.05% DMSO). The bottom chamber contained 150 μL of chemokine, with or without peptide. Cells were migrated at 37° C. in 5% CO2 for 4 hours. The plate was incubated on a shaking platform for 10 minutes, 800 rpm, at 37° C., and 150 μL from the bottom of the plate transferred into a U-bottom plate containing 50 μL of migration media.

CCL8 = molecular target: T1, CCL8 (Homo sapiens, UniProt P80075); test: cell-based
T1 construct: purchased Peprotech
T1 sequence (P80075 24-99): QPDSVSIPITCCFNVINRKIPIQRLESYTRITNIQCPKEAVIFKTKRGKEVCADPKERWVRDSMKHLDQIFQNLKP
Procedure: FIG. 2. […] BK1.2 is described in (Darlot, 2020). […] Chemokines used are indicated by the name, followed in parenthesis by the supplier code (P in supplier code indicates Peprotech). […] All experiments were performed at EC80 doses of indicated chemokine. Data are shown as box-whisker plots of three technical and three biological replicates. Statistically significant differences (compared to control, indicated by #), using Dunnett's test with correction for multiple comparisons, are indicated by asterisks: ****=P≤0.0001, ***=P≤0.001, **=P≤0.01, *=P≤0.05.
FIG. 3. […] Chemokines used are indicated by the name, followed in parenthesis by the supplier code (P in supplier code indicates Peprotech). […] All experiments were performed at EC80 doses of indicated chemokine.
as §2
as §3, with “The plate was incubated on a shaking platform for 10 minutes, 800 rpm, at 37° C., and 150 μL from the bottom of the plate transferred into a U-bottom plate containing 50 μL of migration media.” left out

[2] = system: panel of up to 42 human chemokines; test: Phage-display next generation sequencing screen of overlapping hexadecapeptide libraries, chemokines displayed on streptavidin beads; type: binding; details: log2E greater than 5, chemokines named by first part of UniProt Entry Name, peptides binding complement C5a (control) excluded;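 also: chemokine listed when log2 fold enrichment exceeds 5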
In short: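 Phage-display libraries of 55662 overlapping hexadecapeptides from tick and viral chemokine-binding proteins, human chemokines and chemokine receptors screened against up to 42 human chemokines, with hits found by next-generation sequencing. Peptides mapped to parent-protein position with log2 fold enrichment; regions of interest where cumulative residue log2 E exceeds the 95% upper CI of the protein median.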

CXCL6 = molecular target: T2, CXCL6 (Homo sapiens, UniProt P80162); test: cell-based; details: value in parentheses restating the molar figure
T2 sequence (P80162 38-114): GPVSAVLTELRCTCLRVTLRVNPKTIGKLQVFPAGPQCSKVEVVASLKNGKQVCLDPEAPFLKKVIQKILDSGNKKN
Procedure: FIG. 11. […] Technical replicates are shown as individual data points. […] The response curve (solid blue line) and its 95% confidence interval (grey ribbon) were calculated using a 4-parameter log-logistic plot.
The J:CXCR1 cell line was generated by transfecting Jurkat cells by electroporation with PvuI-linearized plasmid D1398 and selecting with blasticidin (Sigma-Aldrich, Cat #203350, […]). […] J:CXCR1 cells were cultured in RPMI-1640 media (Gibco), supplemented with 10% FBS and 5 mM L-Glutamine with blasticidin. For J:CXCR1 migration assays, 300,000 cells/well were added to the top chamber of a 3 μm Transwell insert (Corning) in 50 μL of migration media (RPMI-1640, 0.5% FBS, 4 mM L-Glutamine, 0.05% DMSO). The bottom chamber contained 150 μL of chemokine, with or without peptide. Cells were migrated at 37° C. in 5% CO2 for 4 hours. The plate was incubated on a shaking platform for 10 minutes, 800 rpm, at 37° C., and 150 μL from the bottom of the plate transferred into a U-bottom plate containing 50 μL of migration media. Cell counts were determined by Attune NxT Flow Cytometer Plate Reader (ThermoFisher), based on cell size parameters FSC-H/SSC-H. Experiments were performed in 3 technical and 3 biological replicates. THP-1 migration assays were carried out using methods known in the art. Activated T-cell assays were carried out using methods known in the art, with the following modifications in the isolation process. Peripheral blood cells were obtained from leucocyte cones (NHS Blood Transfusion Services), following which, T-cells were isolated using two rounds of human CD8+ T-cell isolation kit (480011, BioLegend). At day 10 after activation, T-cells were frozen at 20 E6 cells/ml in TexMACS medium supplemented with 10% DMSO (D2650, Sigma) in liquid nitrogen. Prior to use, activated T-cells were recovered for 24 hours in TexMACs medium at 0.3 E6 cells/ml and incubated at 37° C. in 5% CO2. Chemokine sources are described in Supplementary information Table 3. Statistical significances between control experimental groups was evaluated using Dunnett's test. IC50 experiments were performed at the EC80 dose of chemokine. EC80 was calculated by fitting a chemokine dose-response curve with 3 parameters (fixing the top to 100%). IC50 was calculated by fitting an inhibitor response curve with 4 parameters.
Migration assays using THP1, activated T-cell (ATC) and J:CXCR1 (Jurkat cells stably transfected with CXCR1 receptor) were performed as described previously. IC50 experiments were performed at the EC80 dose of chemokine. EC80 was calculated by fitting a chemokine dose-response curve with 3 parameters (fixing the top to 100%). IC50 was calculated by fitting an inhibitor response curve with 4 parameters. R-packages used were ggupset_0.3.0, DescTools_0.99.44, and drc_3.0-1.

[3] = HD2 saturation mutants, chemokines on streptavidin beads, UniProt entry names

## EEDDYDAYAPLTCYFT [HD2_D6]
[1]; [3]
  Chemokines Bound log2E 1-5: CCL15, CCL17, CCL18, CCL19,; also recorded: CCL22, CCL28, CCL3, CCL4,; also recorded: CCL5, CCL8, X3CL1, CXL10,; also recorded: CXL11, CXL14, IL8
  Chemokines Bound log2E > 5: CCL1, CCL11,; also recorded: CCL2, SDF1,; also recorded: CXL13
[1]; over CC chemokines
  mean log 2 E compared to parental HD2: significant improvement
[1]; over all chemokines
  mean log 2 E compared to parental HD2: significant improvement
CC and CXC chemokines
  chemotaxis inhibition compared with HD2, meta-analysis: did not improve chemotaxis in any assay

## EDEDYEDFFKPVTCYF [HD845]
CCL8; peptide 10 μM, chemokine at EC80, versus scrambled control HD2SCR
  inhibition of cell migration: inhibition
[2]
  Chemokines Bound: CCL18, CCL22,; also recorded: CCL5, CCL8

## EEDDYTAYAPLTCYFT-NH2 [HD2, EEDDYTAYAPLTCYFT]
CXCL6
  IC50: 140 µM
CCL8; value in parentheses restating the molar figure
  IC50: 0.015 µM

From patent US20260234188A1, “CHEMOKINE-BINDING PEPTIDES” (Oxford University Innovation Limited, priority 2022, published 2026)
